Reference: patent US7425548B2, “Materials and methods for immune system stimulation” (Variety Chidren's Hospital, priority 2004, dated 2008)

Columns and labels:
[1] = test system: RAW 264.7 cells; experiment: RR1-induced TNF-α synthesis with and without CAPE, ELISA; format: cell-based, mouse; conditions: CAPE 10 μg/ml for 1 hour prior to RR1, all RR1 concentrations
Method: The cells were pre-incubated with 10 μg/ml CAPE for 1 hour in 0.5% FBS containing DMEM medium and replaced with medium containing RR1 at varying concentrations for 4 hour at 37° C. The medium was analyzed for secreted TNF-α using ELISA protocol.
RR1-induced TNF-α synthesis. RAW 264.7 cells (0.5×10^6/ml) were plated on 6-well plates with DMEM medium containing 0.5% FBS (starvation). Once the cells were attached, medium was replaced, RR1 was added at 0, 100, 500 and 1000 μg/ml doses and incubated at 37° C. for 24 hours. The medium was analyzed for the secreted TNF-α using the ELISA kit (BD BIOSCIENCES kit, San Jose, Calif.) based on the manufacturer's protocol.
To determine the effect of NF-κB inhibitor CAPE on TNF-α synthesis, RAW 264.7 cells were treated with 10 μg/ml of CAPE for 1 hour at 37° C. followed by treatment with RR1 (0-1000 μg/ml) overnight in the incubator. The secreted TNF-α in the medium was analyzed using ELISA (BD BIOSCIENCES, San Jose, Calif.).

[2] = test system: RAW264.7 macrophages; experiment: Opsonized binding and phagocytosis of FITC-zymosan A bioparticles; format: cell-based, mouse; conditions: 37° C.
Method: Monocytes were incubated with RR1 at 37° C. for 1 hour followed by FITC-labeled zymosan A bioparticles for another 1 hour at 37° C. The cells were washed and intracellular fluorescence measured in a Coulter Elite Flow cytometer.
Opsonized binding and Phagocytosis. To determine the effect of RR1 and laminarin on opsonized binding and phagocytosis of zymosan A particles, RAW 264.7 cells were treated with RR1 or laminarin (0 and 500 μg/ml) in DMEM at 37° C. for 1 hour. This will ensure the release of opsonins and facilitate opsonic binding. The cells were washed with PBS twice and incubated with zymosan A-FITC bioparticles at a ratio of 25 particles/cell at 37° C. for 1 hour. The cells were suspended in PBS after removing the unbound zymosan particles by extensive washing with the medium, and the intracellular fluorescence analyzed in a Coulter Elite flow cytometer. The fluorescence intensity was expressed as percentage of control.

Question: Which “effect on RR1-induced TNF-α synthesis” value [1] does the source give for `O=C(/C=C/c1ccc(O)c(O)c1)OCCc1ccccc1` [CAPE, caffeic acid phenethyl ester, reference compound] here?
Answer: completely inhibited

Question: Which “inhibitory effect on opsonized binding and phagocytosis of zymosan A bioparticles” value ([2]; 500 μg/ml, 1 hour) does the source give for Laminarin [reference compound] here?
Answer: absolute inhibitory effect

Question: And the “inhibition of zymosan bioparticle internalization” value ([2]; opsonized)?
Answer: about 90%
